From BindingDB's records for patent US20250163061 (Bala Therapeutics, 2025)

These compounds were tested against T1, Menin (Homo sapiens, UniProt O00255) (assay: Primary Assay Used to Determine Potency of MEN1 Activity Inhibition).
T1 sequence (O00255 whole entry): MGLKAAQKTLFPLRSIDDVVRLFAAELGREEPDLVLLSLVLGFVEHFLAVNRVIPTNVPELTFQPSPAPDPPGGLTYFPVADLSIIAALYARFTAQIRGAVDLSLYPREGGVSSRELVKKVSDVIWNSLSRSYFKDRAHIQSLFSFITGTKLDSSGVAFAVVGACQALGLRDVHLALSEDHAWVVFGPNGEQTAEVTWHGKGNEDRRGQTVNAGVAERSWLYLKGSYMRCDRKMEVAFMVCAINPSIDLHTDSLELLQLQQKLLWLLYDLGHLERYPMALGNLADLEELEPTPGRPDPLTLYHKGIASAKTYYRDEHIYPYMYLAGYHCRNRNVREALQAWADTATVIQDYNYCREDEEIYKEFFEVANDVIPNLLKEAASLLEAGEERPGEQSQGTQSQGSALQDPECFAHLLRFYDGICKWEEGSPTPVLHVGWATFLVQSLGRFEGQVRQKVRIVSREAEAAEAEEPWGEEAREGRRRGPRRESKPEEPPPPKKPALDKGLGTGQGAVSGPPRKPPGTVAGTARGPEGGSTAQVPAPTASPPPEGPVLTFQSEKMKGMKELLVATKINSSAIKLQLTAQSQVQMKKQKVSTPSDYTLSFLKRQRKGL
Description: Compound activity was determined using recombinant MEN1 protein (Creativebiomart, Cat #MEN1-35H) and a custom fluorescein-labeled MLL4-43 peptide (Eton Bioscience Inc.). Interaction between MEN1 and MLL4-43 in the presence of compounds was determined by fluorescence polarization assay using a Microplate Reader ClarioStar Plus. The reaction was carried out in assay buffer (50 mM TRIS-HCl pH 7.4-7.6, 50 mM NaCl, 1 mM DTT, 0.1 mg/ml BSA). The compounds were dispensed on a 384 well Diamond Well Plate (Axigen, Cat #P-384-120SQ-C-S) using the Biomek FX liquid handling system at 100× solutions of compounds in DMSO. 2×MEN1 mix (final concentration of MEN1 10 nM) was prepared in Assay buffer and 10 μl of mixture per well was added into 384 w white Reaction plate with NBS (Corning, Cat #4513). 10 μl of Assay buffer w/o MEN1 was used for negative control. Plates were centrifuged for 1 min at 100 g. Next step the Compounds were added to Reaction plate using Biomek station via following steps: 3 μl of 100× compounds (in DMSO) were mixed thoroughly with 27 μl Assay Buffer, then 2 μl of this mixture was added to Reaction plate with 10 μl of MEN1 mix. Plates were centrifuged for 1 min at 100 g and incubated for 20 min at room temperature. Next 8 μL of MLL4-43 peptide per well was added to final concentration of MLL 0.5 nM. Plates were incubated for 1 hour at room temperature. Then fluorescence polarization was measured using Microplate Reader.

EC50 | Compound
< 75 nM | CN(C)C/C=C/C(=O)N1CCN(CCn2c(C#N)cc3cc(CN4CCC5(CC4)CN(c4ncnc6ccc(CC(F)(F)F)cc46)C5)ccc32)CC1 [US20250163061, Compound 99]
< 75 nM | Cc1c(CN2CCC3(CC2)CN(c2ncnc4ccc(CC(F)(F)F)cc24)C3)ccc2c1cc(C#N)n2CC12CC(NS(C)(=O)=O)(C1)C2
< 75 nM | Cc1c(CN2CCC3(CC2)CN(c2ncnc4ccc(CC(F)(F)F)cc24)C3)ccc2c1cc(C#N)n2C[C@@H]1CNC(=O)CO1 [US20250163061, Compound 102]
< 75 nM | CCS(=O)(=O)N1CCN([C@@H](C)Cn2c(C#N)cc3c(C)c(CN4CCC5(CC4)CN(c4ncnc6ccc(CC(F)(F)F)cc46)C5)ccc32)C[C@@H]1C [US20250163061, Compound 26]
< 75 nM | CCS(=O)(=O)N1CCN([C@H](C)Cn2c(C#N)cc3c(C)c(CN4CCC5(CC4)CN(c4ncnc6ccc(CC(F)(F)F)cc46)C5)ccc32)C[C@@H]1C [US20250163061, Compound 25]
< 75 nM | Cc1c(CN2CCC3(CC2)CN(c2ncnc4ccc(CC(F)(F)F)cc24)C3)ccc2c1cc(C#N)n2CC(C)N1CCNC(=O)C1 (stereo not given) [US20250163061, Compound 93]
< 75 nM | Cc1c(CN2CCC3(CC2)CN(c2ncnc4ccc(CC(F)(F)F)c(F)c24)C3)ccc2c1cc(C#N)n2CC1CNC(=O)CO1 (stereo not given) [US20250163061, Compound 12]
< 75 nM | Cc1c(CN2CCC3(CC2)CN(c2ncnc4ccc(OC(F)(F)F)cc24)C3)ccc2c1cc(C#N)n2C[C@@H]1CNC(=O)CO1 [US20250163061, Compound 1]
< 75 nM | CNC(=O)NC12CC(Cn3c(C#N)cc4c(C)c(CN5CCC6(CC5)CN(c5ncnc7ccc(CC(F)(F)F)cc57)C6)ccc43)(C1)C2 [US20250163061, Compound 60]
< 75 nM | CC(=O)NC12CC(Cn3c(C#N)cc4c(C)c(CN5CCC6(CC5)CN(c5ncnc7ccc(CC(F)(F)F)cc57)C6)ccc43)(C1)C2 [US20250163061, Compound 59]
< 75 nM | Cc1c(CN2CCC3(CC2)CN(c2ncnc4ccc(CC(F)(F)F)cc24)C3)ccc2c1cc(C#N)n2CC1CN(C)S(=O)(=O)CO1 (stereo not given) [US20250163061, Compound 16]
> 5000 nM | Cc1cc(CN2CCC3(CC2)CN(c2ncnc4ccc(CC(F)(F)F)cc24)C3)cc2c1cc(C#N)n2CC(C)N1CCN(S(C)(=O)=O)CC1 (stereo not given) [US20250163061, Compound 83]
< 75 nM | Cc1c(CN2CCC3(CC2)CN(c2ncnc4ccc(CC(F)(F)F)cc24)C3)ccc2c1cc(C#N)n2CC1CCNC(=O)CC1 (stereo not given) [US20250163061, Compound 5]
< 75 nM | Cc1c(CN2CCC3(CC2)CN(c2ncnc4ccc(CC(F)(F)F)cc24)C3)ccc2c1cc(C#N)n2CC1CNC(=O)C1 (stereo not given) [US20250163061, Compound 51]
< 75 nM | COc1cc2c(cc1CN1CCC3(CC1)CN(c1ncnc4ccc(CC(F)(F)F)cc14)C3)cc(C#N)n2CC(C)N1CCN(S(C)(=O)=O)CC1 (stereo not given) [US20250163061, Compound 20]
< 75 nM | Cc1c(CN2CCC3(CC2)CN(c2ncnc4cc(F)c(CC(F)(F)F)cc24)C3)ccc2c1cc(C#N)n2CC(C)N1CCN(S(C)(=O)=O)CC1 (stereo not given) [US20250163061, Compound 30]
< 75 nM | C=CC(=O)N1CCN(CCCn2c(C#N)cc3c(C)c(CN4CCC5(CC4)CN(c4ncnc6ccc(CC(F)(F)F)cc46)C5)ccc32)CC1 [US20250163061, Compound 66]
< 75 nM | Cc1c(CN2CCC3(CC2)CN(c2ncnc4ccc(CC(F)(F)F)cc24)C3)ccc2c1cc(C#N)n2CC1CCC(=O)NC1 (stereo not given) [US20250163061, Compound 72]
500 to 1000 nM | Cc1c(CN2CCC3(CC2)CN(c2nc(=O)[nH]c4ccc(CC(F)(F)F)cc24)C3)ccc2c1cc(C#N)n2C[C@@H]1CNC(=O)CO1 [US20250163061, Compound 105]
< 75 nM | C=CC(=O)N1CCN(C(C)Cn2c(C#N)cc3c(C)c(CN4CCC5(CC4)CN(c4ncnc6ccc(CC(F)(F)F)cc46)C5)ccc32)CC1 (stereo not given) [US20250163061, Compound 63]
